Data as given in patent US20100189707A1, “Stable Enzymatic Peracid Generating Systems” (priority 2007, published 2010).

Experiments:
[1] = system: B. subtilis spores; test: Killing of B. subtilis spores by PAA; type: cell-based; conditions: 15 min RT
Method: In this Example, experiments conducted to determine the killing curve of peracetic acid (PAA) and PAA in conjunction with detergent (commercially available PUREX® [Dial] was used in this Example) for B. subtilis spores. In these experiments, the B. subtilis spores were prepared as known in the art (See e.g., Siccardi et al., J. Bacteriol., 121:13-19 [1975]). Assays were carried out in duplicate in 96-well, round bottomed microtiter plates (Costar) with peracetic acid (32 wt % in acetic acid; Aldrich). The PAA was serially diluted in either 50 mM KPO4 buffer, pH 7.1 (“Buffer”), or in a 1:500 dilution of Purex (original formula; Dial) in the same buffer (“Buffer+Det”) in a total volume of 50 μl. The amount of PAA added to the assay was 0, 0.4, 4 or 40 mM. A volume of 5 μl of the spore suspension, containing 10^9-10^10 spores, was then added to each well and the assay incubated for 15 min at RT. Ice cold LB (150 μl) (See e.g., Sambrook et al., “Molecular Cloning: A Laboratory Manual”, Second Edition (Cold Spring Harbor), [1989]) was then added to each well, mixed, and 100 μl transferred to a fresh 96-well plate. Serial dilutions of each solution were made (in a total volume of 100 μl/well). A volume of 5 μl of each dilution was spotted onto LA plates (Sambrook et al., supra), and incubated at 37° C. for 17-24 h. Colonies were counted and the % spore killing was determined relative to the respective controls (buffer alone or buffer+detergent, without peracid). The results are presented in Table 1, as an average of duplicates from one experiment. However, the experiment was done twice in duplicate with similar results.

[2] = system: S54V-MsAcT; test: Enzymatic generation of PAA by S54V variant (ABTS assay); type: biochemical, M. smegmatis; conditions: for relative conversion rate to PAA for the three ester substrates: with S54V-MsAcT, same method as for PGDA
Method: In these experiments, methods known in the art were used to determine the concentration of PAA (See e.g., Pinkernell et al., Analyst, 122:567-571 [1997]). In this ABTS assay, 100 μl of the solution to be analyzed was added to 1 ml of 125 mM potassium citrate buffer, pH 5.0, containing 1.0 mM 3-ethylbenzthiazoline-6-sulfonic acid (ABTS) and 50 uM KI, and allowed to incubate at RT for 3 minutes. The absorbance was measured at 420 nm in a HP 8452A Diode Array Spectrophotomer and compared to a standard curve prepared using authentic standard. The enzymatic reactions to form PAA were initiated with addition of enzyme and conducted at RT. Aliquots were withdrawn from the reactions at the indicated times and analyzed for PAA concentration. The sodium percarbonate used in these experiments was obtained from Kemira and the hydrogen peroxide was obtained from EM Science.
A solution of 39 mM sodium percarbonate (sodium carbonate peroxyhydrate, Technical grade 85%, yielding 100 mM effective H2O2; Kemira) was prepared in 320 mM KPO4 pH 7.1. […] To compare the enzymatic production of PAA from prepared H2O2 (32 wt %, Aldrich) or H2O2 formed from percarbonate under identical pH conditions, two reactions were prepared. One reaction contained 100 mM H2O2 in 320 mM KPO4, pH 7.6, 100 mM 1,2-propylene glycol diacetate (Aldrich), and 2 ppm variant S54V. The absolute concentration of H2O2 was assumed from the value stated on the label and not confirmed by analysis. The second reaction contained 39 mM sodium percarbonate in 320 mM KPO4, pH 7.1, 100 mM 1,2-propylene glycol diacetate, and 2 ppm S54V. The reactions were initiated by the addition of the enzyme. Samples were withdrawn at the times indicated and the concentration of PAA determined as described in Example 1.
In order to study the use of different propyl alcohol acetate ester substrates, the generation of PAA was carried out using the same general method described above for PGDA, but using either propyl acetate or triacetin as the ester substrate. […]
In this Example, experiments to assess the amount of peracetic acid produced from glucose and propyleneglycol diacetate are described. […] Further samples were withdrawn at the times indicated in FIG. 2, and the concentration of PAA determined as described above. No PAA was detected before the addition of enzyme and approximately 9.5 mM PAA was produced from the 20 mM 1,2-propylene glycol diacetate and the H2O2 produced from the glucose/glucose oxidase reaction.
In these experiments, three reactions were prepared, consisting of 320 mM KPO4 pH 7.1, 100 mM 1,2-propylene glycol diacetate (Aldrich), and 100 mM sodium percarbonate. […] Samples were withdrawn at the times indicated in the Figure, and the concentration of PAA determined as described above.

[3] = system: B. subtilis spores; test: MsAcT system generated PAA killing of B. subtilis spores in buffer or detergent; type: cell-based; conditions: single reaction components in 400 mM KPO4 pH 7.1: 2 ppm S54V variant, 39 mM percarbonate, 100 mM PGDA
Method: In this experiment, sodium percarbonate was used as the source of H2O2. The final solution contained: 100 mM 1,2-propylene glycol diacetate, 2 ppm S54V variant, 39 mM sodium percarbonate (Technical grade 85%; yielding 100 mM effective H2O2) in 320 mM KPO4 pH 7.1 in a total volume of 800 μl. This mix (yield 40 mM PAA) was serially diluted to give additional mixes that yielded 4.9, 9.9 and 20.5 mM PAA. A mix with only 400 mM KPO4 pH 7.1 was used to determine total spore counts in the absence of PAA. The mixes were allowed to incubate at room temperature for 3 min. A volume of 180 μl of each of the mixes was then dispensed into duplicate wells of a round-bottomed 96-well plate (Costar) that contained 20 μl of the spore suspension used in Example 1, to yield a total volume of 200 μl in each well. The liquid was gently pipetted 4-5 times to ensure mixing of the components. The mixes were incubated with the spores for a further 15 or 30 minutes at room temperature. At the 15 and 30 minute time points, 20 μl were removed from each of the wells, added to wells in a fresh 96-well plate and serially diluted in LB to 10^−7 in a total volume of 100 μl. A volume of 5 μl from each dilution of each spore mixture was spotted onto an LA plate, allowed to dry and then incubated overnight at 37° C. Also at the 15 and 30 min time points, an appropriate volume was removed from each well and diluted sufficiently in dH2O to yield a measurable amount of PAA using the ABTS assay on scale with a standard, as described in Example 1. The results of the spore killing are presented as an average of the duplicates.
The experiment was repeated exactly as described except that a 1:500 dilution of Purex in 320 mM KPO4 pH 7.1, was used in place of the buffer. The results are presented in Table 3 (average of duplicates). Controls included various reaction components in 400 mM KPO4 pH 7.1 buffer: 2 ppm S54V variant, 2 ppm S54V variant with 39 mM percarbonate, 100 mM 1,2-propylene glycol diacetate, 100 mM 1,2-propylene glycol diacetate with 39 mM sodium percarbonate, 39 mM sodium percarbonate. […]

## CC(=O)OO [PAA, peracetic acid]
[1]; Buffer + Detergent, 0.4 mM PAA
  % Spore Killing: 0.05%
  Spores/ml: 1.7 × 10^9 Spores/ml
[1]; Buffer + Detergent, 4 mM PAA
  % Spore Killing: 86.4%
  Spores/ml: 2.4 × 10^8 Spores/ml
[1]; Buffer + Detergent, 40 mM PAA
  % Spore Killing: 100%
  Spores/ml: 0 Spores/ml
[1]; Buffer, 0.4 mM PAA
  % Spore Killing: 86.4%
  Spores/ml: 2.4 × 10^8 Spores/ml
[1]; Buffer, 4 mM PAA
  % Spore Killing: 90%
  Spores/ml: 1.6 × 10^8 Spores/ml
[1]; Buffer, 40 mM PAA
  % Spore Killing: 100%
  Spores/ml: 0 Spores/ml

## CC(=O)OCC(C)OC(C)=O (stereo not shown) [PGDA, 1,2-propylene glycol diacetate]
[2]
  relative conversion rate to PAA for the three ester substrates: PGDA >triacetin >propyl acetate
[3]
  spores/ml after a 30 min incubation: 5×10^9 spores/ml

## CCCOC(C)=O [propyl acetate]
[2]
  relative conversion rate to PAA for the three ester substrates: PGDA >triacetin >propyl acetate

## O=C([O-])[O-].O=C([O-])[O-].OO.OO.OO.[Na+].[Na+].[Na+].[Na+] [sodium percarbonate]
[3]
  spores/ml after a 30 min incubation: 1×10^9 spores/ml

B1: S54V variant: M. smegmatis acyl transferase variant comprising the S54V substitution (protein)
chain: MAKRILCFGDSLTWGWVPVEDGAPTERFAPDVRWTGVLAQQLGADFEVIEEGLVARTTNIDDPTDPRLNGASYLPSCLATHLPLDLVIIMLGTNDTKAYFRRTPLDIALGMSVLVTQVLTSAGGVGTTYPAPKVLVVSPPPLAPMPHPWFQLIFEGGEQKTTELARVYSALASFMKVPFFDAGSVISTDGVDGIHFTEANNRDLGVALAEQVRSLL
[2]; 20 mM 1,2-propylene glycol diacetate, H2O2 from glucose/glucose oxidase, 2 ppm S54V variant, RT
  PAA produced: approximately 9.5 mM
[2]; 2 ppm S54V variant, 100 mM PGDA, 100 mM sodium percarbonate, 21, 40, 60° C.
  temperature up to which the enzyme system is functional: ≥ 60 °C
[3]
  spores/ml after a 30 min incubation: 5×10^9 spores/ml
